According to patent US20240269298A1, “PHOSPHONYL DERIVATIVE, AND COMPOSITION AND PHARMACEUTICAL APPLICATION THEREOF” (XIZANG HAISCO PHARMACEUTICAL CO., LTD., priority 2021, published 2024):
Read-outs that look alike come from different tables or passages of the source.

Legend:
Format in all cases: cell-based
[1] = biological target: T1, EGFR protein in NCI-H1975 EGFR-L858R-T790M-C797S cells (Homo sapiens, UniProt P00533, C797S/L858R/T790M); assay: Degradation activity on EGFR protein in NCI-H1975 EGFR-L858R-T790M-C797S cells, Method II (western blot, 48 h); conditions: 48 h incubation, EGFR protein relative to DMSO control
T1 construct: expressed in transfected cells; host or cells: NCI-H1975 EGFR-L858R-T790M-C797S (kept under hygromycin selection)
Experimental: Protein sample preparation: NCI-H1975 EGFR-L858R-T790M-C797S cells were cultured in an incubator at 37° C. with 5% CO2, and the culture medium was RPMI1640+10% FBS+100 μg/mL hygromycin. The cells in the logarithmic phase were collected, and the cell suspension was adjusted to an appropriate concentration with a hygromycin-free culture medium, plated on a 6-well plate at a density of 350000 cells/well and a volume of 2 mL, and cultured overnight in an incubator at 37° C. with 5% CO2. The next day, the compounds at different concentrations were added. DMSO control wells were provided, wherein the concentration of DMSO in all wells was 0.1%. The 6-well plate was cultured in an incubator at 37° C. with 5% CO2 for 48 h, and then 30 μL of RIPA lysates (Beyotime, Cat. P0013B) containing protease inhibitors (Beyotime, Cat. P0013B) were added. The mixtures were lysed on ice for 30 min. Centrifugation was carried out at 13000 rpm/min at 4° C. for 20 minutes to collect protein supernatant samples, and protein quantification was performed by the BCA method. Western Blot detection samples were prepared.
Western blot detection: 20 μg of protein samples were added to each well, subjected to polyacrylamide gel electrophoresis and transferred to a membrane, and then diluted anti-EGFR (CST, Cat. 4267S) and […] (Kangchen, Cat. KC-5G4) antibodies were added and incubated overnight at 4° C. After washing the membrane, diluted goat anti-rabbit (Licor, Cat. 926-32211) and goat anti-mouse (Licor, Cat. 926-68070) antibodies were added and incubated in the dark for 45 min. Scanning and detection at wavelengths of 700 nm and 800 nm were performed with a far-infrared imaging system (Odyssey).
According to formula (3), the expression level of EGFR protein in the cells relative to the DMSO control group was calculated after incubation with different concentrations of compounds. wherein EGFRcompound was the fluorescence value of EGFR protein after incubation with compounds, and EGFRvehicle was the fluorescence value of EGFR protein in the DMSO control group. Using the Origin 9.2 software, the drug concentration DC50 values when the expression level of EGFR protein was 50% relative to the DMSO control group were calculated.

[2] = tested on: NCI-H1975 EGFR-L858R-T790M-C797S cells; assay: Inhibitory activity on proliferation of NCI-H1975 EGFR-L858R-T790M-C797S cells (CellTiter-Glo, 72 h); conditions: Homo sapiens
How it was run: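 Cells (1500/well) exposed to graded compound concentrations for 72 h at 37 °C in hygromycin-free RPMI1640 + 10% FBS, 0.1% DMSO vehicle. Viability by CellTiter-Glo luminescence relative to vehicle; IC50 from nonlinear sigmoidal dose-survival fit.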

[3] = tested on: Ba/F3-TEL-EGFR-T790M-L858R-C797S cells; assay: Inhibitory activity on proliferation of Ba/F3-TEL-EGFR-T790M-L858R-C797S cells (CellTiter-Glo, 72 h)
Experimental: Ba/F3-TEL-EGFR-T790M-L858R-C797S cells were cultured in an incubator at 37° C. with 5% CO2. The cells in the logarithmic phase were collected, counted and plated in a 96-well plate at a density of 2000 cells/well. The compounds at different concentrations were added, and a vehicle control group (cells plus DMSO) and a blank control group (cell culture mediums plus DMSO) were provided, wherein the concentration of DMSO was both 0.1%. The cell culture plate was cultured in an incubator at 37° C. with 5% CO2 for 72 hours. After the incubation was completed, the cell culture plate was removed and allowed to equilibrate to room temperature for 10 min. […] The plate was placed at room temperature for 10 min, and then […] signal values were measured using a microplate reader (SpectraMax Paradigm). […] The inhibition rates corresponding to different concentrations of compounds were calculated, and using the GraphPad Prism software, the inhibition rate curves were plotted, and IC50 values were calculated. wherein RLUDrug was the readout of the drug-treated group, RLUMax was the readout of the control group, and RLUMin was the readout of the blank group.

T1 sequence (P00533 25-1210 T790M/C797S/L858R): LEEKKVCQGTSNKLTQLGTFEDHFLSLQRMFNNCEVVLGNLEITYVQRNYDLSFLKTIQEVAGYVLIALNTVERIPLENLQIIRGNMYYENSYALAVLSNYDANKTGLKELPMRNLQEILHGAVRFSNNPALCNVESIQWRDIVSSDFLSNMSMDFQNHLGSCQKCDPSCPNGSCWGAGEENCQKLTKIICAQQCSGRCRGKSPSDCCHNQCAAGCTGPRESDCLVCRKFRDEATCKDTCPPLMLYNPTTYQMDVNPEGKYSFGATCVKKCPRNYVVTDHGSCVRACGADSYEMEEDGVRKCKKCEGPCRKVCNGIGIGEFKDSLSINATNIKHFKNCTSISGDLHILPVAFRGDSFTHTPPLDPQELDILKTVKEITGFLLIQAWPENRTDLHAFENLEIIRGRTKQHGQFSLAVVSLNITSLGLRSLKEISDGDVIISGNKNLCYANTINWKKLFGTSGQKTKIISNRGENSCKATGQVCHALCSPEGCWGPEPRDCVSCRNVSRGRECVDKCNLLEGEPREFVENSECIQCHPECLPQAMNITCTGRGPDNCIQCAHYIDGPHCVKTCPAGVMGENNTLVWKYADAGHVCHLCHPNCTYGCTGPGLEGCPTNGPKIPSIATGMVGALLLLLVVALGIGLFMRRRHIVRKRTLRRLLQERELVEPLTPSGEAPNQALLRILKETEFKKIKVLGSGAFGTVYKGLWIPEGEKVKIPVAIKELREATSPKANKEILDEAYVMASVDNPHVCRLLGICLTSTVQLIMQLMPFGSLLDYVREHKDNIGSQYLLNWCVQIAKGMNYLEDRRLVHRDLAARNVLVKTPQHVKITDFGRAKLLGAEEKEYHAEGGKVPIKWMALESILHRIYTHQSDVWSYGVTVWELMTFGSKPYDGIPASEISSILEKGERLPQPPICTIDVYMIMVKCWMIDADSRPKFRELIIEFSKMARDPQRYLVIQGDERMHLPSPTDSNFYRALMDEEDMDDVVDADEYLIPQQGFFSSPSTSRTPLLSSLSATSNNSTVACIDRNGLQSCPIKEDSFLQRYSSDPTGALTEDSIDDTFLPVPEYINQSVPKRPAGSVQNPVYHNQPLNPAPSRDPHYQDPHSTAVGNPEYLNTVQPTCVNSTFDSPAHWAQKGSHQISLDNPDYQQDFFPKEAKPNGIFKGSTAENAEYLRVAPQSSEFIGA

Row | DC50 [1] [nM] | IC50 ([2]; read-out: IC50 (class symbol)) [nM] | IC50 ([2]; read-out: IC50 (value)) [nM] | IC50 [3] [nM] | Compound
1 | < 100 | < 200 | 45 | 15.6 | COc1cc(N2CCC(CN3CCN(c4ccc5c(c4)C(=O)N(C4CCC(=O)NC4=O)C5=O)CC3)CC2)c(-c2cnn(C)c2)cc1Nc1ncc(Cl)c(Nc2ccc(C3CC3)cc2P(C)(C)=O)n1 (centres unmarked) [Compound 107, 5-(4-((1-(4-((5-chloro-4-((4-cyclopropyl-2-(dimethylphosphoryl)phenyl)amino)pyrimidin-2-yl)amino)-5-methoxy-2-(1-methyl-1H-pyrazol-4-yl)phenyl)piperidin-4-yl)methyl)piperazin-1-yl)-2-(2,6-dioxopiperidin-3-yl)isoindoline-1,3-dione]
2 | < 100 | < 200 | 112 | 15.6 | COc1cc(N2CCC(CN3CCN(c4ccc5c(c4)C(=O)N(C4CCC(=O)NC4=O)C5=O)CC3)CC2)c(-c2cnn(C)c2)cc1Nc1ncc(Br)c(Nc2ccc(C3CC3)cc2P(C)(C)=O)n1 (centres unmarked) [Compound 106, 5-(4-((1-(4-((5-bromo-4-((4-cyclopropyl-2-(dimethylphosphoryl)phenyl)amino)pyrimidin-2-yl)amino)-5-methoxy-2-(1-methyl-1H-pyrazol-4-yl)phenyl)piperidin-4-yl)methyl)piperazin-1-yl)-2-(2,6-dioxopiperidin-3-yl)isoindoline-1,3-dione]
